Target: AKT1 (Homo sapiens (Human), UniProt P31749)
Assay: Inactive Akt Alpha Screen Assay
Details: non *labeled: Akt Alpha Screen assay; read-out: AKT1 biochemical assay, IC50
Summary of the method: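 AKT1 activated in situ by PDK1, MAPKAPK2, lipid vesicles and ATP, then phosphorylating biotinylated crosstide for 30 min at room temperature. Stopped with 10 mM EDTA; phosphopeptide detected by AlphaScreen using phospho-AKT substrate antibody (1:350), Protein A acceptor and streptavidin donor beads, 90 min dark, ex 640/em 570 nm.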

Chain of AKT1 (P31749 whole entry): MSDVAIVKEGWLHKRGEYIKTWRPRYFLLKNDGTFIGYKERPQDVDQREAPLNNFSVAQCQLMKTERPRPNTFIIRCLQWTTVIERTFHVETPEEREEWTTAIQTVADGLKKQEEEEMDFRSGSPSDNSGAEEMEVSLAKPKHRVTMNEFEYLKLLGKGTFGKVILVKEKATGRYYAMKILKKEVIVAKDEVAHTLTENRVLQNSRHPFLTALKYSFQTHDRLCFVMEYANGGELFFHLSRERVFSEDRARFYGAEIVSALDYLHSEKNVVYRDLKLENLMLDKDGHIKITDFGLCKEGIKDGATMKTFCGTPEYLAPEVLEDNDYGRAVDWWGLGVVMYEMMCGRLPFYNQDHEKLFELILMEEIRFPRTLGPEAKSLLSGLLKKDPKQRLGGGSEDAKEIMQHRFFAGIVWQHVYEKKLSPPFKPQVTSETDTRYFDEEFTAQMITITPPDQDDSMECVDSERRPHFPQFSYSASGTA

| Structure (SMILES) | IC50 [nM] |
| --- | --- |
| O=C(c1ccccn1)N1CCN(Cc2ccc(-c3nnc4n3-c3cccnc3Nc3ccccc3-4)cc2)CC1 [Example 161, (4-(4-(9H-benzo[f]pyrido[2,3-b][1,2,4]triazolo[4,3-d][1,4]diazepin-3-yl)benzyl)piperazin-1-yl)(pyridin-2-yl)methanone] | 4200 |
| CN(C)c1ccc(C(=O)Nc2ccc(-c3nnc4n3-c3cccnc3Nc3ccccc3-4)cc2)cc1 [Example 45, N-(4-(9H-benzo[f]pyrido[2,3-b][1,2,4]triazolo[4,3-d][1,4]diazepin-3-yl)phenyl)-4-(dimethylamino)benzamide] | 1900 |
| Cn1ccc(S(=O)(=O)NCc2ccc(-c3nnc4n3-c3cccnc3Nc3ccccc3-4)cc2)n1 [Example 104, N-(4-(9H-benzo[f]pyrido[2,3-b][1,2,4]triazolo[4,3-d][1,4]diazepin-3-yl)benzyl)-1-methyl-1H-pyrazole-3-sulfonamide] | 120 |
| CC(C)CC(=O)Nc1ccc(-c2nnc3n2-c2cccnc2Nc2ccccc2-3)cc1 [Example 33, N-(4-(9H-benzo[f]pyrido[2,3-b][1,2,4]triazolo[4,3-d][1,4]diazepin-3-yl)phenyl)-3-methylbutanamide] | 700 |
| O=C(Nc1ccc(-c2nnc3n2-c2cccnc2Nc2ccccc2-3)cc1)c1ccccc1F [Example 51, N-(4-(9H-benzo[f]pyrido[2,3-b][1,2,4]triazolo[4,3-d][1,4]diazepin-3-yl)phenyl)-2-fluorobenzamide] | 110 |
| Oc1ccc(-c2nnc3n2-c2cccnc2Nc2ccccc2-3)cc1 [Example 19, 4-(9H-benzo[f]pyrido[2,3-b][1,2,4]triazolo[4,3-d][1,4]diazepin-3-yl)phenol] | 2200 |
| Cc1noc(C2CCCN(Cc3ccc(-c4nnc5n4-c4cccnc4Nc4ccccc4-5)cc3)C2)n1 (stereo not shown) [Example 190, 5-(1-(4-(9H-benzo[f]pyrido[2,3-b][1,2,4]triazolo[4,3-d][1,4]diazepin-3-yl)benzyl)piperidin-3-yl)-3-methyl-1,2,4-oxadiazole] | 410 |
| O=C(NCc1ccc(-c2nnc3n2-c2cccnc2Nc2ccccc2-3)cc1)c1ccc(F)cc1 [Example 95, N-(4-(9H-benzo[f]pyrido[2,3-b][1,2,4]triazolo[4,3-d][1,4]diazepin-3-yl)benzyl)-4-fluorobenzamide] | 300 |
| NC1(c2ccc(-c3nnc4n3-c3cccnc3Nc3ccccc3-4)cc2)CC1 [Example 222, 1-(4-(9H-benzo[f]pyrido[2,3-b][1,2,4]triazolo[4,3-d][1,4]diazepin-3-yl)phenyl)cyclopropanamine] | 140 |
| c1ccc(OC2CCCN(Cc3ccc(-c4nnc5n4-c4cccnc4Nc4ccccc4-5)cc3)C2)cc1 (stereo not shown) [Example 189, 3-(4-((3-phenoxypiperidin-1-yl)methyl)phenyl)-9H-benzo[f]pyrido[2,3-b][1,2,4]triazolo[4,3-d][1,4]diazepine] | 920 |
| NC1(c2ccc(-c3nnc4n3-c3cccnc3Nc3ccc(-c5ccccc5)cc3-4)cc2)CCC1 [Example 224, 1-(4-(12-phenyl-9H-benzo[f]pyrido[2,3-b][1,2,4]triazolo[4,3-d][1,4]diazepin-3-yl)phenyl)cyclobutanamine] | 1200 |
| O=S(=O)(NCc1ccc(-c2nnc3n2-c2cccnc2Nc2ccccc2-3)cc1)c1ccc(Cl)cc1 [Example 119, N-(4-(9H-benzo[f]pyrido[2,3-b][1,2,4]triazolo[4,3-d][1,4]diazepin-3-yl)benzyl)-4-chlorobenzenesulfonamide] | 220 |
| O=C(Cc1ccccc1)Nc1ccc(-c2nnc3n2-c2cccnc2Nc2ccccc2-3)cc1 [Example 49, N-(4-(9H-benzo[f]pyrido[2,3-b][1,2,4]triazolo[4,3-d][1,4]diazepin-3-yl)phenyl)-2-phenylacetamide] | 240 |
| O=C(NCc1ccc(-c2nnc3n2-c2cccnc2Nc2ccccc2-3)cc1)c1cccnc1 [Example 96, N-(4-(9H-benzo[f]pyrido[2,3-b][1,2,4]triazolo[4,3-d][1,4]diazepin-3-yl)benzyl)nicotinamide] | 200 |
| CN1CCC(N(C)Cc2ccc(-c3nnc4n3-c3cccnc3Nc3ccccc3-4)cc2)CC1 [Example 88, N-(4-(9H-benzo[f]pyrido[2,3-b][1,2,4]triazolo[4,3-d][1,4]diazepin-3-yl)benzyl)-N,1-dimethylpiperidin-4-amine] | 5500 |
| O=C(NCCc1ccc(-c2nnc3n2-c2cccnc2Nc2ccccc2-3)cc1)c1ccccc1 [Example 111, N-(4-(9H-benzo[f]pyrido[2,3-b][1,2,4]triazolo[4,3-d][1,4]diazepin-3-yl)phenethyl)benzamide] | 630 |
| CN(C)C(=O)CN1CCN(Cc2ccc(-c3nnc4n3-c3cccnc3Nc3ccccc3-4)cc2)CC1 [Example 72, 2-(4-(4-(9H-benzo[f]pyrido[2,3-b][1,2,4]triazolo[4,3-d][1,4]diazepin-3-yl)benzyl)piperazin-1-yl)-N,N-dimethylacetamide] | 8000 |

| Structure (SMILES) | IC50 [nM] |
| --- | --- |
| O=S(=O)(NCc1ccc(-c2nnc3n2-c2cccnc2Nc2ccccc2-3)cc1)c1cccnc1 [Example 105, N-(4-(9H-benzo[f]pyrido[2,3-b][1,2,4]triazolo[4,3-d][1,4]diazepin-3-yl)benzyl)pyridine-3-sulfonamide] | 220 |
| c1ccc(CCN2CCN(Cc3ccc(-c4nnc5n4-c4cccnc4Nc4ccccc4-5)cc3)CC2)cc1 [Example 94, 3-(4-((4-phenethylpiperazin-1-yl)methyl)phenyl)-9H-benzo[f]pyrido[2,3-b][1,2,4]triazolo[4,3-d][1,4]diazepine] | 5800 |
| c1ccc2c(c1)Nc1ncccc1-n1c(-c3ccc(CN4CCN(Cc5ccncc5)CC4)cc3)nnc1-2 [Example 74, 3-(4-((4-(pyridin-4-ylmethyl)piperazin-1-yl)methyl)phenyl)-9H-benzo[f]pyrido[2,3-b][1,2,4]triazolo[4,3-d][1,4]diazepine] | 5200 |
| O=S(=O)(NC1CCN(Cc2ccc(-c3nnc4n3-c3cccnc3Nc3ccccc3-4)cc2)CC1)c1ccccc1F [Example 147, N-(1-(4-(9H-benzo[f]pyrido[2,3-b][1,2,4]triazolo[4,3-d][1,4]diazepin-3-yl)benzyl)piperidin-4-yl)-2-fluorobenzenesulfonamide] | 2300 |
| CC(C)CN(C)Cc1ccc(-c2nnc3n2-c2cccnc2Nc2ccccc2-3)cc1 [Example 85, N-(4-(9H-benzo[f]pyrido[2,3-b][1,2,4]triazolo[4,3-d][1,4]diazepin-3-yl)benzyl)-N,2-dimethylpropan-1-amine] | 7100 |
| O=C(Nc1ccc(-c2nnc3n2-c2cccnc2Nc2ccccc2-3)cc1)c1ccc(-c2ccccc2)cc1 [Example 61, N-(4-(9H-benzo[f]pyrido[2,3-b][1,2,4]triazolo[4,3-d][1,4]diazepin-3-yl)phenyl)-[1,1′-biphenyl]-4-carboxamide] | 780 |
| O=C(Nc1ccc(-c2nnc3n2-c2cccnc2Nc2ccccc2-3)cc1)C1CCC1 [Example 57, N-(4-(9H-benzo[f]pyrido[2,3-b][1,2,4]triazolo[4,3-d][1,4]diazepin-3-yl)phenyl)cyclobutanecarboxamide] | 700 |
| CC(C)(C)C(=O)Nc1ccc(-c2nnc3n2-c2cccnc2Nc2ccccc2-3)cc1 [Example 43, N-(4-(9H-benzo[f]pyrido[2,3-b][1,2,4]triazolo[4,3-d][1,4]diazepin-3-yl)phenyl)pivalamide] | 420 |
| O=C(Nc1ccc(-c2nnc3n2-c2cccnc2Nc2ccccc2-3)cc1)c1ccc2ccccc2c1 [Example 28, N-(4-(9H-benzo[f]pyrido[2,3-b][1,2,4]triazolo[4,3-d][1,4]diazepin-3-yl)phenyl)-2-naphthamide] | 680 |
| O=C(Nc1ccc2c(c1)CCO2)NC1CCN(Cc2ccc(-c3nnc4n3-c3cccnc3Nc3ccccc3-4)cc2)CC1 [Example 175, 1-(1-(4-(9H-benzo[f]pyrido[2,3-b][1,2,4]triazolo[4,3-d][1,4]diazepin-3-yl)benzyl)piperidin-4-yl)-3-(2,3-dihydrobenzofuran-5-yl)urea] | 530 |
| O=C(NCc1ccc(-c2nnc3n2-c2cccnc2Nc2ccccc2-3)cc1)Nc1ccccc1 [Example 107, 1-(4-(9H-benzo[f]pyrido[2,3-b][1,2,4]triazolo[4,3-d][1,4]diazepin-3-yl)benzyl)-3-phenylurea] | 2900 |
| CCC(=O)Nc1ccc(-c2nnc3n2-c2cccnc2Nc2ccccc2-3)cc1 [Example 39, N-(4-(9H-benzo[f]pyrido[2,3-b][1,2,4]triazolo[4,3-d][1,4]diazepin-3-yl)phenyl)propionamide] | 1800 |
| O=S(=O)(NC1CCN(Cc2ccc(-c3nnc4n3-c3cccnc3Nc3ccccc3-4)cc2)CC1)c1cccc(F)c1 [Example 157, N-(1-(4-(9H-benzo[f]pyrido[2,3-b][1,2,4]triazolo[4,3-d][1,4]diazepin-3-yl)benzyl)piperidin-4-yl)-3-fluorobenzenesulfonamide] | 2700 |
| O=c1[nH]c2ccccc2n1C1CCN(Cc2ccc(-c3nnc4n3-c3cccnc3Nc3ccccc3-4)cc2)CC1 [Example 24, 1-(1-(4-(9H-benzo[f]pyrido[2,3-b][1,2,4]triazolo[4,3-d][1,4]diazepin-3-yl)benzyl)piperidin-4-yl)-1H-benzo[d]imidazol-2(3H)-one] | 83 |
| O=S(=O)(CC1CCCCC1)NC1CCN(Cc2ccc(-c3nnc4n3-c3cccnc3Nc3ccccc3-4)cc2)CC1 [Example 148, N-(1-(4-(9H-benzo[f]pyrido[2,3-b][1,2,4]triazolo[4,3-d][1,4]diazepin-3-yl)benzyl)piperidin-4-yl)-1-cyclohexylmethanesulfonamide] | 3400 |
| O=C(NC1(c2ccc(-c3nnc4n3-c3ccc(Cl)nc3Nc3ccccc3-4)cc2)CCC1)C(F)(F)F [Example 226, N-(1-(4-(7-chloro-9H-benzo[f]pyrido[2,3-b][1,2,4]triazolo[4,3-d][1,4]diazepin-3-yl)phenyl)cyclobutyl)-2,2,2-trifluoroacetamide] | 9300 |
| CN(CCc1ccccc1)Cc1ccc(-c2nnc3n2-c2cccnc2Nc2ccccc2-3)cc1 [Example 79, N-(4-(9H-benzo[f]pyrido[2,3-b][1,2,4]triazolo[4,3-d][1,4]diazepin-3-yl)benzyl)-N-methyl-2-phenylethanamine] | 780 |

From patent US8541407B2 (ArQule, Inc., priority 2010, dated 2013)
